Test [1] concerns the target T1, Methionyl-tRNA synthetase, putative (Trypanosoma brucei brucei, UniProt Q38C91).
T1 sequence (Q38C91 whole entry): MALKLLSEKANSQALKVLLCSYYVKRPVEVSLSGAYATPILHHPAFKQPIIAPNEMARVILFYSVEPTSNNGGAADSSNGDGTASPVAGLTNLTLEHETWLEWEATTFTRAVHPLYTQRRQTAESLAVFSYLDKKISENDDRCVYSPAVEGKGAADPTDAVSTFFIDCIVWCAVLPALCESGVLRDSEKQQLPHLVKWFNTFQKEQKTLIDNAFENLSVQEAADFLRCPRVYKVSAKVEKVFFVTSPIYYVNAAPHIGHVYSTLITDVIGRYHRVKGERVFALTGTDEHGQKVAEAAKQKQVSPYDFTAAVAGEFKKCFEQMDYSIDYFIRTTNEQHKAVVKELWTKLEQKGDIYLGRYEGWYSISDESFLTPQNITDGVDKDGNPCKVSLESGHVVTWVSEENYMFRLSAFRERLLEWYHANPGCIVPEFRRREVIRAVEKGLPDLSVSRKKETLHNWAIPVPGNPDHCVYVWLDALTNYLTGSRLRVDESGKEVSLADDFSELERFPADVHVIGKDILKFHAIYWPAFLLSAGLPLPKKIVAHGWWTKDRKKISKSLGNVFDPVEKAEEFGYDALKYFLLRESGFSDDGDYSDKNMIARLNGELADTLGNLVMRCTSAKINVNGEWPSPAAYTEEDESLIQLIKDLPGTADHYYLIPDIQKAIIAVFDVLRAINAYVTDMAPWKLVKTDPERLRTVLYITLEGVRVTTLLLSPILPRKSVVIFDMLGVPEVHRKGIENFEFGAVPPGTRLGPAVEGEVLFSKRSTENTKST
It counts as functional, Trypanosoma brucei brucei strain 927/4 GUTat10.1.

Test [2] is described as follows: Counterscreen for inhibitors of Trypanosoma brucei methionyl tRNA synthetase (MetRS): Luminescence-based cell-based high throughput dose response assay to identify compounds that are cytotoxic to Jurkat human T lymphocyte cells. The test is classed as functional. In general terms: Counterscreens check selectivity or assay interference.
Test [3] has as its target T1, Methionyl-tRNA synthetase, putative. The test is classed as functional, Trypanosoma brucei brucei strain 927/4 GUTat10.1. The source holds these as a separate data set.
Test [4] is described as follows: Late stage counterscreen for inhibitors of Trypanosoma brucei methionyl tRNA synthetase (MetRS): Luminescence-based cell-based high throughput dose response assay to identify compounds that are cytotoxic to Jurkat human T lymphocyte cells. The test is classed as functional.
In test [5] the target is Luciferin 4-monooxygenase (Photinus pyralis, UniProt P08659). The test can be described thus: Counter Screen for Luciferase-based Assay Positives. [Related pubchem assays: 620, 618, 411 ].
Another test concerns HT-1080. Nature of the test: HT1080 cell viability loss – fluorescence readout (AID 620). It counts as functional, cell-based. The note with it: Homo sapiens.
The nature of test [6]: toxicity toward HEK293 cells – cell-based, dry powder samples, cytotoxicity control, dose response (AID 720567). The test is classed as functional.
The nature of test [7]: blockers of HIV-1 envelope-mediated cell-cell fusion – cherry-pick, dose response (AID 652057). It counts as functional, cell-based.
The nature of test [8]: viability loss in CEM21 cells – cell-based, CellTiter-Glo luminescence, cherry-picked, cytotoxicity control for viral fusion inhibitor project, dose response (AID 652042).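 Also: potency for signal decrease meaning cytotoxicity.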 The test is classed as functional. In general terms: ATP-based viability assays read luminescence as a measure of living cells.
The nature of test [9]: inhibition of Env-driven cell fusion – HIV entry, plate reader, dry powder, dose response (AID 687023). The test is classed as functional, cell-based.
Test [10] can be described thus: viability loss in CEM21 cells – cell-based, plate reader, dry powder, cytotoxicity control, dose response (AID 687026). The test is classed as functional.
Test [11] can be described thus: inhibitors of non-replicating M. tuberculosis, dose response, luciferase, dry powder (AID 651619). To be noted: Mycobacterium tuberculosis. The test is classed as functional.
A short description of test [12]: HepG2 hepatoma cell viability loss – plate reader, dry powder, cytotoxicity control, dose response (AID 651947). It counts as functional, cell-based.
The nature of test [13]: HeLa cell viability loss – plate reader, dry powder, cytotoxicity control, dose response (AID 651946). The test is classed as functional, cell-based.
Test [14] is described as follows: inhibitors of non-replicating M. tuberculosis, dose response, luciferase, dry powder (AID 651620). The test is classed as functional. The note with it: Mycobacterium tuberculosis.
Test [15] can be described thus: growth inhibition of replicating M. tuberculosis, dose response, counter-screen, dry powder, IC90 (AID 651617). It counts as functional. To be noted: Mycobacterium tuberculosis.

For orientation: IC50 means the concentration at which inhibition is half-maximal. Usually EC50 stands for the concentration that produces a half-maximal response. What is called AC50 is the midpoint of the concentration-response curve, whichever way the signal moves. For orientation: IC90 means the point of the concentration-response curve where the effect stands at 90%.

Molecules are shown by their SMILES. The source made the active and inactive calls.

Luciferin 4-monooxygenase, sequence (P08659 whole entry): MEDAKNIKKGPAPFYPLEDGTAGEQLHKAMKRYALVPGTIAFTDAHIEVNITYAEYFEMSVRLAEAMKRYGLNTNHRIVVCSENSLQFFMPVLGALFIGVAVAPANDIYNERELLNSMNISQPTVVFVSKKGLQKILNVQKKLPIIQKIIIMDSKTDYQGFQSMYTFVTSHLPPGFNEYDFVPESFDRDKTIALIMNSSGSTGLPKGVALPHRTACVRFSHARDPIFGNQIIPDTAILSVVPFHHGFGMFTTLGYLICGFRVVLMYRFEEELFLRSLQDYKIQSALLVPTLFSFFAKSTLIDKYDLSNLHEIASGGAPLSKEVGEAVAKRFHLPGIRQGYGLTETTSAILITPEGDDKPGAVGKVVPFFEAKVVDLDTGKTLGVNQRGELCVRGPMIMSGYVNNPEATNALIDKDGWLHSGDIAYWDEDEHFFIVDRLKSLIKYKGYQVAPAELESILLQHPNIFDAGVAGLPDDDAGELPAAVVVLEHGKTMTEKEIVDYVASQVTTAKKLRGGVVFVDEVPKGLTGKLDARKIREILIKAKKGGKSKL

For the compound `O=C(NCc1nc2ccccc2[nH]1)C1=C[C@H](c2ccc3c(c2)OCO3)C[C@H](OCCCCO)O1`, the IC50 in [1] was 3.35 µM (active); in [2], 83.3 µM (inactive); in [3], 1.84 µM (active); in test [4], > 83.3 µM (inactive).

Take `Cc1cc(NC(=O)CSc2nc(-c3ccco3)cc(C(F)(F)F)n2)no1`: the EC50 in test [5] is 1.59 µM (active); with HT-1080, 6.41 µM (active). The AC50 in [6] was > 30 µM (inactive).

With `C[C@@H]1CN([C@H](C)CO)C(=O)c2cccc(NS(=O)(=O)c3ccc(Cl)cc3)c2O[C@@H]1CN(C)Cc1ccc(Cl)c(Cl)c1`, the AC50 in test [7] is 1.45 µM (active); in [8], 52.9 µM (active); in test [9], 7.39 µM (active); in test [10], 18.9 µM (active).

As for `Clc1ccc(-c2nnc(SCc3ccccn3)o2)cc1`, the concentration for an effect of 90% (IC90) in test [11] was 4 µM (active); in [14], 4 µM (active); in test [15] it was 62 µM (active). The figures for the concentration at half-maximal activity (AC50) in test [12] and in test [13] were 27.8 µM (active) and > 52 µM (inactive), respectively.
